Laboratory results published in patent US8207156B2, “Substituted pyrazoline compounds, their preparation and use as medicaments” (Laboratorios Del Dr. Esteve, S.A., priority 2005, dated 2012).

Assays:
CB1 receptor [1] = biological target: T1, CB1 receptor; assay: In-vitro determination of affinity to CB1/CB2-receptors (radioligand [3H]-CP55940 binding); settings: binding data per pharmacological methods part I, table does not say whether human transfected receptor or rat cerebellum
T1 construct: IC50 [nM]; radioligand [3H]-CP55940
Description: (§1) The in-vitro determination of the affinity of the inventive substituted pyrazoline compounds to CB1/CB2-Rezeptors is carried out as described in the publication of Ruth A. Ross, Heather C. Brockie et al., “Agonist-inverse agonist characterization at CB1 and CB2 cannabinoid receptors of L-759633, L759656 and AM630”, British Journal of Pharmacology, 126, 665-672, (1999), whereby the transfected human CB1 and CB2 receptors of Receptor Biology, Inc. are used. The radioligand used for both receptors is [^3H]-CP55940. The respective parts of the description is hereby incorporated by reference and forms part of the present disclosure.
(§2) Binding affinity to CB1 receptor was evaluated according to a modification of the method described by Govaerts et al., Eur J Pharmac Sci 23, 233-243 (2004). The respective parts of the description is hereby incorporated by reference and forms part of the present disclosure.
(§3) Briefly, cerebellum from male wistar rats (250-300 g) were carefully dissected on ice and homogenates were prepared with Potter-Helveheim in a cold 50 mM Tris-HCl solution containing 5 mM MgCl2, 1 mM EDTA and 0.25 M sucrose, pH 7.4. The suspension was centrifuged at 1,000×g for 5 minutes. The supernatants were collected and centrifuged 50,000×g for 15 minutes. The resulting pellets were then resuspended in Tris-HCl buffer without sucrose, homogenized and incubated for 15 min at 37° C. in an orbital shaker bath and centrifuged again at 50,000×g for 15 min. Pellets were weighted, resuspended in Tris-HCl buffer without sucrose, homogenized with Ultraturrax at 13,500 rpm for 3×5 seconds and alicuoted in 0.9 ml volumes in Eppendorf tubes. Alicuotes were centrifuged at 20,800×g for 5 minutes, supernatants discarded and pellets were frozen at −80° C. until use. Total protein concentration was determined using the Bio-Rad Lowry method based kit. Competitive binding experiments were performed in presence of 1 nM [^3H]-CP 55,940 in siliconized glass tubes containing 100 μg protein/tube resuspended in 1 ml final volume of 50 mM Tris-HCl, 5 mM MgCl2, 1 mM EDTA, 0.5% (w/v) bovine serum albumin, pH 7.4. Compounds were present at various concentrations and the non specific binding was determined in the presence of 10 μM HU-210. After 1 hour incubation at 30° C., the suspension was rapidly filtered through 0.5% PEI pre-treated GF/B fiber filters on a 96-well harvester and washed 3 times with 3 ml ice-cold binding buffer without bovine serum albumin. Radioactivity on filters was measured with Wallac Winspectral 1414 counter by liquid scintillation in 6 ml Ecoscint H (National Diagnostics, U.K.). Assays were made in triplicates.
(§4) Binding data were analyzed by non-linear regression with the software GraphPad Prism Version 3.03.

[2] = biological target: recombinant human cannabinoid 1 receptor (CB1) (Homo sapiens, UniProt P21554); assay: In vitro determination of antagonism to CB1-receptor ([35S]GTPγS binding assay, CHO cell membranes); type: biochemical; settings: compound at 1 μM against agonist WIN 55,212-2 (3 nM to 3 μM); effect of Rimonabant (1 μM) defined as 100%
Summary of the method: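 Membranes from CHO cells stably expressing human CB1 (15 μg protein/well) incubated 60 min at 30° C., pH 7.4, with 5 μM GDP, saponin and 0.5 nM [35S]GTPγS, compound at 1 μM final, with or without WIN 55,212-2 (3 nM–3 μM). Bound radioactivity via filtration; basal subtracted, antagonism scaled to WIN 55,212-2 ± Rimonabant (1 μM) window as 100%.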

CB1 receptor [3] = biological target: T2, CB1 receptor (UniProt P20272); assay: In-vitro determination of affinity to CB1/CB2-receptors (radioligand [3H]-CP55940 binding); settings: for Inhibition [%], 10^−7 M: compound at 10^−7 M; for Inhibition [%], 10^−8 M: compound at 10^−8 M
T2 construct: other: compound at 10^−7 M; radioligand [3H]-CP55940; other: compound at 10^−8 M
Description: as §1, §2, §3, §4

recombinant human cannabinoid 1 receptor (CB1), sequence (P21554 whole entry): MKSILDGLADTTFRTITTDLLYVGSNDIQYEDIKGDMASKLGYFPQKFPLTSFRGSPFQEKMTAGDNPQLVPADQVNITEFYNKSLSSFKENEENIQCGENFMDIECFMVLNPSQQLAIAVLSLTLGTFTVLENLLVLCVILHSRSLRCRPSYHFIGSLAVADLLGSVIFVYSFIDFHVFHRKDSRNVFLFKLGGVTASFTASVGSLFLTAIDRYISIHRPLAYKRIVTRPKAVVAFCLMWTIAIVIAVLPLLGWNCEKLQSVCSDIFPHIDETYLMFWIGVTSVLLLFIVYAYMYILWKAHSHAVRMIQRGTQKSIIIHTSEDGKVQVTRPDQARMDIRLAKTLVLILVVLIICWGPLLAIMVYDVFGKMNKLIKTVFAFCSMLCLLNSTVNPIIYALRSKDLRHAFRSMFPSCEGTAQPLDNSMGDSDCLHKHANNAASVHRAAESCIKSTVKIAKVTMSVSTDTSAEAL

Row | Structure (SMILES) | IC50 (CB1 receptor [1]) [nM] | Antagonism [%] [2] [%] | Inhibition [%], 10^−7 M (CB1 receptor [3]) [%] | Inhibition [%], 10^−8 M (CB1 receptor [3]) [%] | IC50 (CB1 receptor [1]; hydrochloride) [nM] | Inhibition [%], 10^−7 M (CB1 receptor [3]; hydrochloride) [%] | Inhibition [%], 10^−8 M (CB1 receptor [3]; hydrochloride) [%]
1 | C[C@@H]1CN(C(=O)C2=NN(c3ccc(Cl)cc3Cl)C(c3ccc(Cl)cc3)C2)C[C@H](C)O1 (stereo partly drawn) [Example 80, [5-(4-Chloro-phenyl)-1-(2,4-dichloro-phenyl)-4,5-dihydro-1H-pyrazol-3-yl]-(2,6-dimethyl-morpholin-4-yl)-methanone] | 501 | 56 |  |  |  |  | 
2 | O=C(NC1CCCc2ccccc21)C1=NN(c2ccc(Cl)cc2Cl)C(c2ccc(Cl)cc2)C1 (stereo not drawn) [Example 76, 5-(4-Chloro-phenyl)-1-(2,4-dichloro-phenyl)-4,5-dihydro-1H-pyrazole-3-carboxylic acid (1,2,3,4-tetrahydro-naphthalen-1-yl)-amide] | 398 | 57 |  |  |  |  | 
3 | O=C(NN1CCCCCC1)C1=NN(c2ccc(Cl)cc2Cl)C(c2ccc(Br)cc2)C1 (stereo not drawn) [Example 68, 5-(4-Bromo-phenyl)-1-(2,4-dichloro-phenyl)-4,5-dihydro-1H-pyrazole-3-carboxylic acid azepan-1-ylamide] | 39.8 | 98 |  |  |  |  | 
4 | COc1ccc(C2CC(C(=O)NN3CCCCCC3)=NN2c2ccc(Cl)cc2Cl)cc1 (stereo not drawn) [Example 114A, 1-(2,4-Dichloro-phenyl)-5-(4-methoxy-phenyl)-4,5-dihydro-1H-pyrazole-3-carboxylic acid azepan-1-ylamide] | 18 |  | 79.3 | 41.4 |  |  | 
5 | O=C(NC1CCCCCC1)C1=NN(c2ccc(Cl)cc2Cl)C(c2ccc(Br)cc2)C1 (stereo not drawn) [Example 130, 5-(4-Bromo-phenyl)-1-(2,4-dichloro-phenyl)-4,5-dihydro-1H-pyrazole-3-carboxylic acid cycloheptylamide] | 52 |  | 67.7 | 33.1 |  |  | 
6 | O=C(N[C@H]1CCCC[C@@H]1OCc1ccccc1)C1=NN(c2ccc(Cl)cc2Cl)C(c2ccc(Cl)cc2)C1 (stereo partly drawn) [Example 151, N-((1S,2S)-2-(benzyloxy)cyclohexyl)-5-(4-chlorophenyl)-1-(2,4-dichlorophenyl)-4,5-dihydro-1H-pyrazole-3-carboxamide] | 32 |  | 82.3 | 67.5 |  |  | 
7 | COc1ccc(C2CC(C(=O)NN3CC4CCCC4C3)=NN2c2ccc(Cl)cc2Cl)cc1.Cl (stereo not drawn) [Example 109A, 1-(2,4-Dichloro-phenyl)-5-(4-methoxy-phenyl)-4,5-dihydro-1H-pyrazole-3-carboxylic acid (hexahydro-cyclopenta[c]pyrrol-2-yl)-amide] | 15 |  | 74.2 | 33.5 |  |  | 
8 | COc1ccc(C2CC(C(=O)NN3CCCCC3)=NN2c2ccc(Cl)cc2Cl)cc1.Cl (stereo not drawn) [Example 106, 1-(2,4-Dichloro-phenyl)-5-(4-methoxy-phenyl)-4,5-dihydro-1H-pyrazole-3-carboxylic acid piperidin-1-ylamide hydrochloride] |  |  | 76.1 | 23.4 | 32 |  | 
9 | O=C(NCC1CCCCC1)C1=NN(c2ccc(Cl)cc2Cl)C(c2ccc(Cl)cc2)C1 (stereo not drawn) [Example 32, 5-(4-Chloro-phenyl)-1-(2,4-dichloro-phenyl)-4,5-dihydro-1H-pyrazole-3-carboxylic acid cyclohexylmethyl-amide] | 84 |  | 52.7 | 12 |  |  | 
10 | COc1ccc(C2CC(C(=O)NN3CCCCCC3)=NN2c2ccc(Cl)cc2Cl)cc1.Cl (stereo not drawn) [Example 114, 1-(2,4-Dichloro-phenyl)-5-(4-methoxy-phenyl)-4,5-dihydro-1H-pyrazole-3-carboxylic acid azepan-1-ylamide hydrochloride] |  |  | 68.7 | 47.6 | 24 |  | 
11 | O=C(NN1CCCCCCC1)C1=NN(c2ccc(Cl)cc2Cl)C(c2ccc(F)cc2)C1 (stereo not drawn) [Example 147, 5-(4-fluoro-phenyl)-1-(2,4-dichloro-phenyl)-4,5-dihydro-1H-pyrazole-3-carboxylic acid azocan-1-ylamide] | 54 |  | 63.4 | 24.0 |  |  | 
12 | O=C(NN1CCCCC1)C1=NN(c2ccc(Cl)cc2Cl)C(c2ccc(Br)cc2)C1 (stereo not drawn) [Example 60A, 5-(4-Bromo-phenyl)-1-(2,4-dichloro-phenyl)-4,5-dihydro-1H-pyrazole-3-carboxylic acid piperidin-1-ylamide] | 44 |  | 65.8 | 33.3 |  |  | 
13 | COc1ccc(C2CC(C(=O)NN3CCc4ccccc43)=NN2c2ccc(Cl)cc2Cl)cc1.Cl (stereo not drawn) [Example 112, 1-(2,4-Dichloro-phenyl)-5-(4-methoxy-phenyl)-4,5-dihydro-1H-pyrazole-3-carboxylic acid (2,3-dihydro-indol-1-yl)-amide hydrochloride] | 106 |  | 61.8 | 46.3 |  |  | 
14 | O=C(N[N+]1([O-])CCCCC1)C1=NN(c2ccc(Cl)cc2Cl)C(c2ccc(Cl)cc2)C1 (stereo not drawn) [Example 7, N-oxide of 5-(4-Chloro-phenyl)-1-(2,4-dichloro-phenyl)-4,5-dihydro-1H-pyrazole-3-carboxylic acid piperidin-1-ylamide] | 146 |  | 71.2 | −12.8 |  |  | 
15 | Cl.O=C(NN1CC2CCCC2C1)C1=NN(c2ccc(Cl)cc2Cl)C(c2ccc(F)cc2)C1 (stereo not drawn) [Example 91, 1-(2,4-Dichloro-phenyl)-5-(4-fluoro-phenyl)-4,5-dihydro-1H-pyrazole-3-carboxylic acid (hexahydro-cyclopenta[c]pyrrol-2-yl)-amide hydrochloride] |  |  |  |  | 47 | 79.1 | 43
16 | Cl.O=C(NN1CCCCC1)C1=NN(c2ccc(Cl)cc2Cl)C(c2ccc(F)cc2)C1 (stereo not drawn) [Example 135, 1-(2,4-Dichloro-phenyl)-5-(4-fluoro-phenyl)-4,5-dihydro-1H-pyrazole-3-carboxylic acid piperidin-1-ylamide hydrochloride] |  |  | 78.5 | 40.2 | 83 |  | 
17 | Cl.O=C(NN1CC2CCCC2C1)C1=NN(c2ccc(Cl)cc2Cl)C(c2ccc(F)cc2)C1 (stereo not drawn) [Example 91A, 1-(2,4-Dichloro-phenyl)-5-(4-fluoro-phenyl)-4,5-dihydro-1H-pyrazole-3-carboxylic acid (hexahydro-cyclopenta[c]pyrrol-2-yl)-amide] | 84 |  | 75.3 | 34.9 |  |  | 
18 | O=C(NN1CCCCCC1)C1=NN(c2ccc(Cl)cc2Cl)C(c2ccc(F)cc2)C1 (stereo not drawn) [Example 96, 1-(2,4-Dichloro-phenyl)-5-(4-fluoro-phenyl)-4,5-dihydro-1H-pyrazole-3-carboxylic acid azepan-1-ylamide] | 56 |  | 74.8 | 43.3 |  |  | 
